The source of these data is PMC12799524, “Putative new biomarkers for renal transporter-mediated drug-drug interactions: Characterization as substrates of organic cation transporter 2, multidrug and toxin extrusion protein 1, and other important drug transporters” (Drug Metabolism and Disposition, 2025).

The target of one data set is T1, human OCT2 (Homo sapiens, UniProt O15244).
T1 sequence (O15244 1-555): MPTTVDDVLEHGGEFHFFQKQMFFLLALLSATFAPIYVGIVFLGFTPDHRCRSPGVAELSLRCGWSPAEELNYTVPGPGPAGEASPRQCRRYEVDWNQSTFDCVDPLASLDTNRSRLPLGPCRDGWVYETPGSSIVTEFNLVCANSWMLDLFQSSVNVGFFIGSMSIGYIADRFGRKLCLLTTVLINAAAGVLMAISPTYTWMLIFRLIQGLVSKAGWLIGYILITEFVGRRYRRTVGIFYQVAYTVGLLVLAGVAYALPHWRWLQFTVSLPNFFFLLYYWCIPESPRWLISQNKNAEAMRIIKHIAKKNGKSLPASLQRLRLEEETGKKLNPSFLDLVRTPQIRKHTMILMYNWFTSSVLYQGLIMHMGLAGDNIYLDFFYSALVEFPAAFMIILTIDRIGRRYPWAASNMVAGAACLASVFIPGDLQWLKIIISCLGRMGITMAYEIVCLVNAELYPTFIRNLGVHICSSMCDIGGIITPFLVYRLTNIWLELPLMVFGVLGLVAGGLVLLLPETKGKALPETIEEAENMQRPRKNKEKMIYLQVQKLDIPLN
Description: Uptake assay in HEK-OCT2 vs HEK-VC cells. It is filed as in vitro ADME. Set-up: expressed in transfected cells; host or cells: HEK293 (HEK-OCT2). Conditions: for Uptake in HEK-OCT2 cells compared to HEK-VC cells (in words) / Effect of cimetidine on uptake in HEK-OCT2 cells: 10 and 100 μM substrate; for Effect of cimetidine on uptake in HEK-OCT2 cells: cimetidine 50 μM; for In Vitro OCT2 (substrate class): summary of in vitro uptake/transport results. Here is the method:
(§1) Transport experiments were performed 48 hours after seeding.
The intracellular background of all 5 compounds in HEK cells at the beginning of the uptake experiments was investigated 48 hours after seeding without incubation with transport buffer (ie, 0 minutes). […] Then, cells were lysed with ice-cold 80% MeOH containing the aforementioned recovery standards. In addition, the impact of a 5-minute incubation period with transport buffer without added substance was investigated.

The target of another data set is T2, human OATP1B1 (Homo sapiens, UniProt Q9Y6L6).
T2 construct: expressed in transfected cells; host or cells: HEK293 (HEK-OATP1B1)
T2 sequence (Q9Y6L6 1-691): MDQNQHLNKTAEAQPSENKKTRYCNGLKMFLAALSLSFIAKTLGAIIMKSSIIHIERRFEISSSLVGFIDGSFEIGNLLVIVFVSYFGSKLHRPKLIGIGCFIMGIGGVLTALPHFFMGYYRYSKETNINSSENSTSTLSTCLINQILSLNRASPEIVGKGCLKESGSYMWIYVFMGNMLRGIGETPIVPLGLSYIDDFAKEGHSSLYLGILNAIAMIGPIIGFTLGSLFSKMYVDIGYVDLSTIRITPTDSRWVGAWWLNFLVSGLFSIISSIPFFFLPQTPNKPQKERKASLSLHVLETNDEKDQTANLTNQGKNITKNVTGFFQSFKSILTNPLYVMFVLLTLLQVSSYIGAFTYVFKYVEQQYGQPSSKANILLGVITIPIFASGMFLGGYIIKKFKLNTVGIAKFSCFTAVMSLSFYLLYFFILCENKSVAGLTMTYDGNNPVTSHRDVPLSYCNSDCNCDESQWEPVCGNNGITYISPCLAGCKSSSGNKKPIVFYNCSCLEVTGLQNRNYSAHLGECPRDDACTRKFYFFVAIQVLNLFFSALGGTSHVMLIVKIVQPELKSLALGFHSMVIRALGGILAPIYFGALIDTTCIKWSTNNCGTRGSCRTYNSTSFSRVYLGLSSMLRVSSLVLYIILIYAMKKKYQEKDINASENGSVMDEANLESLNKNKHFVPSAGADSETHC
Description: Uptake assay in HEK-OATP1B1 vs HEK-VC cells. It is filed as in vitro ADME. Here is the method:
as §1

In a further data set the target is T3, human OATP1B3 (Homo sapiens, UniProt Q9NPD5).
T3 construct: expressed in transfected cells; host or cells: HEK293 (HEK-OATP1B3)
T3 sequence (Q9NPD5 1-702): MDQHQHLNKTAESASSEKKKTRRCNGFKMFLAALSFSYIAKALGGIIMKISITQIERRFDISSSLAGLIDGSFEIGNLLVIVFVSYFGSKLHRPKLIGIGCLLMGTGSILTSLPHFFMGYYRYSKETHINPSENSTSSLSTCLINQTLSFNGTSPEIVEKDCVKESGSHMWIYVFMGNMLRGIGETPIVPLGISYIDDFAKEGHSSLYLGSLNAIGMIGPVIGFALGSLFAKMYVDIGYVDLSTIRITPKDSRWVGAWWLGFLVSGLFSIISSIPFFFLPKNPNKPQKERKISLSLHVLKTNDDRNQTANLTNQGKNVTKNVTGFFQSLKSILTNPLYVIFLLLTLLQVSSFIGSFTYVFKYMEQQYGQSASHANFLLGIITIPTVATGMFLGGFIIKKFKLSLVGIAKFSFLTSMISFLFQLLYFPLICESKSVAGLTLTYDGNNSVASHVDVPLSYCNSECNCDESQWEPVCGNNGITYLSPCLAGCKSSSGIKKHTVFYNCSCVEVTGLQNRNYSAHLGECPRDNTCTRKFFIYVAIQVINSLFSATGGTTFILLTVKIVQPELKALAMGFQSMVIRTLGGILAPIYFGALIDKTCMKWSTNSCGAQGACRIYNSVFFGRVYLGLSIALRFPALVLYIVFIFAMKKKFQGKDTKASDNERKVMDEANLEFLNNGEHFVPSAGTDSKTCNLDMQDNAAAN
Description: Uptake assay in HEK-OATP1B3 vs HEK-VC cells. It is filed as in vitro ADME. Here is the method:
as §1

On the set-up of data set [1]: method as in PMID 39148267. Conditions: humans, cited from earlier work; for In Vivo Change of Renal Excretion, Cimetidine: median log2-fold change after treatment with cimetidine; for In Vivo Change of Renal Excretion, Probenecid: median log2-fold change after treatment with probenecid; for In Vivo Change of Renal Excretion, Rifampin: median log2-fold change after treatment with rifampin; for In Vivo Change of Renal Excretion, Verapamil: median log2-fold change after treatment with verapamil.

Setting [2] is: 10 μM substrate, 5 minutes, HEK-VC set to 100%.
Where [3] appears, read: listed as 5-amino valeric acid betaine.

Like-named read-outs stand apart in the source and are kept apart here. Marks after values point to notes of the source that are not given here.

In the case of `NCCc1ccc(O)cc1` [Tyramine, tyramine], the “Uptake in HEK-OCT2 cells compared to HEK-VC cells” value at human OCT2 (setting [2]) stood at 3245%. Moreover, at human OCT2 (5 minutes), the “Uptake in HEK-OCT2 cells compared to HEK-VC cells (in words)” value is given as “significantly higher” and the “Effect of cimetidine on uptake in HEK-OCT2 cells” value (from here on “Effect of cimetidine on uptake”) is “significantly reduced”. Moreover, the “In Vitro OCT2 (substrate class)” value at human OCT2 is given as “++”. Also, at human OATP1B1, the “In Vitro OATP1B1 (substrate class)” value is listed as 0 (significant uptake in HEK cells, but less than 300% of respective control cells or significant reduction of transcellular transport in Caco-2 cells, but reduction not below 50% of respective control without valspodar). Moreover, the “In Vitro OATP1B3 (substrate class)” value at human OATP1B3 is “-”. In addition, in data set [1], the “In Vivo Change of Renal Excretion, Cimetidine” value (shortened to “In Vivo Change … Cimetidine”) is “–3.00 ^c log2-fold change”; the “In Vivo Change of Renal Excretion, Probenecid” value (“In Vivo Change … Probenecid” below) was “–0.82 log2-fold change”; the “In Vivo Change of Renal Excretion, Rifampin” value (“In Vivo Change … Rifampin” for short) is reported as “–0.11 log2-fold change”; the “In Vivo Change of Renal Excretion, Verapamil” value (shortened to “In Vivo Change … Verapamil”) was “–0.22 log2-fold change”.
For the compound `Cn1cnc(CCN)c1` [1-Methylhistamine, 1-methylhistamine], the “In Vitro OATP1B1 (substrate class)” value at human OATP1B1 was “-”. At human OATP1B3, the “In Vitro OATP1B3 (substrate class)” value was “-”. For the same compound, in data set [1], the “In Vivo Change … Cimetidine” value is reported as “–2.01 ^c log2-fold change”; the “In Vivo Change … Probenecid” value was “–0.25 log2-fold change”; the “In Vivo Change … Rifampin” value is recorded as “–0.07 log2-fold change”; the “In Vivo Change … Verapamil” value is reported as 0.03 log2-fold change.
For the compound `C[N+](C)(C)CCCCC(=O)[O-]` [5-Amino valeric acid betaine, 5-amino valeric acid betaine], the “Intracellular background in HEK-OCT2 cells compared to HEK-VC cells” value at human OCT2 (0 minutes, without added substance) is listed as “lower”. The “Intracellular concentration in HEK-OCT2 cells compared to HEK-VC cells (in words)” value at human OCT2 (10 μM substrate, 5 minutes) is on record as “comparable”. Besides, at human OCT2 (100 μM substrate, 5 minutes), the “Intracellular concentration in HEK-OCT2 cells compared to HEK-VC cells (in words)” value is “significantly higher”. Further, the “Intracellular background in HEK-OCT2 cells compared to HEK-VC cells” value on human OCT2 (5 minutes in transport buffer without added substance) is on record as “lower”. Also, on human OCT2 (5 minutes), the “Effect of cimetidine on uptake” value is recorded as “significantly reduced”. In addition, on human OCT2, the “In Vitro OCT2 (substrate class)” value was “+”. Moreover, the “In Vitro OATP1B1 (substrate class)” value on human OATP1B1 was 0 (significant uptake in HEK cells, but less than 300% of respective control cells or significant reduction of transcellular transport in Caco-2 cells, but reduction not below 50% of respective control without valspodar). The “In Vitro OATP1B3 (substrate class)” value at human OATP1B3 is listed as 0 (significant uptake in HEK cells, but less than 300% of respective control cells or significant reduction of transcellular transport in Caco-2 cells, but reduction not below 50% of respective control without valspodar). Moreover, in data set [1] (cimetidine), the “Renal elimination, change after cimetidine” value is listed as “–3.62 log2-fold change”. In data set [1], the “In Vivo Change … Cimetidine” value was “–4.28 ^c log2-fold change”; the “In Vivo Change … Probenecid” value is “–0.56 ^c log2-fold change”; the “In Vivo Change … Rifampin” value is reported as “–0.21 log2-fold change”; the “In Vivo Change … Verapamil” value is reported as “–1.00 log2-fold change”. For the same compound, in data set [1] (setting [3]), the “In Vivo Change … Cimetidine” value is given as “–4.28 log2-fold change” and the “In Vivo Change … Probenecid” value is on record as “–1.00 log2-fold change”.
As to `NCCc1c[nH]c2ccc(O)cc12` [Serotonin, serotonin], at human OCT2 (setting [2]), the “Uptake in HEK-OCT2 cells compared to HEK-VC cells” value is given as 3960%. In addition, the “Uptake ratio in HEK-OCT2 cells compared to HEK-VC cells” value on human OCT2 (100 μM substrate, 5 minutes, HEK-VC set to 100%) worked out at 6281%. Further, on human OCT2 (5 minutes), the “Uptake in HEK-OCT2 cells compared to HEK-VC cells (in words)” value is reported as “significantly higher” and the “Effect of cimetidine on uptake” value is reported as “significantly reduced”. In addition, the “In Vitro OCT2 (substrate class)” value on human OCT2 is on record as “++”. Further, the “In Vitro OATP1B1 (substrate class)” value at human OATP1B1 is on record as “-”. Further, at human OATP1B3, the “In Vitro OATP1B3 (substrate class)” value was “-”. In data set [1] (cimetidine), the “Plasma concentrations, effect of cimetidine” value is on record as “did not sensitively change” and the “Urine to plasma ratio, change by cimetidine” value was “–1.94 log2-fold change”. Also, in data set [1], the “In Vivo Change … Cimetidine” value is “–2.89 ^c log2-fold change”; the “In Vivo Change … Probenecid” value is on record as 0.06 log2-fold change; the “In Vivo Change … Rifampin” value is recorded as “–0.06 log2-fold change”; the “In Vivo Change … Verapamil” value is listed as 0.00 log2-fold change. Besides, in data set [1] (listed as serotonin), the “In Vivo Change … Cimetidine” value is “–2.89 log2-fold change”.
